{"source": "paper PMC7827085", "about": "(Pharmaceutics, 2021)", "key": {"ABCB1/Pgp": {"target": "T1, ABCB1/Pgp (Homo sapiens, UniProt P08183)", "T1 construct": "made in house; host or cells: Sf9 insect cells", "experiment": "ABCB1-ATPase activity in Sf9 membrane vesicles", "assay_type": "biochemical", "experimental": "ABC transporter ATPase activity was measured in Sf9 membrane vesicles containing the respective human ABC transporters. For ABCG2/BCRP, the cholesterol level in the vesicles was increased to the level of mammalian cell membranes for full activity. For ABCB1/Pgp 20 μg/150 μL and for ABCG2/BCRP 10 μg/150 μL, vesicles were incubated with 3 mM Mg-ATP for 25 min at 37 °C. The test drugs were dissolved in DMSO and 1 µL was added to the samples. The ABC transporter-related ATPase activity was determined and reference activators (50 µM verapamil for ABCB1 and 5 µM quercetin for ABCG2) served as controls.\nDrug-stimulated ATPase activity of the ABCB1 transporter is a well-documented functional assay employed to estimate the substrate or inhibitory features of various drugs. […] In this assay, most transported substrates show a biphasic curve: Low concentrations stimulate, while higher concentrations inhibit, the ATPase activity. In these experiments, we measured the vanadate-sensitive (ABC transporter-related) ABCB1-ATPase activity in membrane vesicles isolated from ABCB1 overexpressing Sf9 cells."}, "wild-type ABCG2": {"target": "T2, wild-type ABCG2 (Homo sapiens, UniProt Q9UNQ0)", "T2 construct": "expressed in transfected cells; host or cells: HeLa (Sleeping Beauty transposon system)", "T2 sequence (Q9UNQ0 1-655)": "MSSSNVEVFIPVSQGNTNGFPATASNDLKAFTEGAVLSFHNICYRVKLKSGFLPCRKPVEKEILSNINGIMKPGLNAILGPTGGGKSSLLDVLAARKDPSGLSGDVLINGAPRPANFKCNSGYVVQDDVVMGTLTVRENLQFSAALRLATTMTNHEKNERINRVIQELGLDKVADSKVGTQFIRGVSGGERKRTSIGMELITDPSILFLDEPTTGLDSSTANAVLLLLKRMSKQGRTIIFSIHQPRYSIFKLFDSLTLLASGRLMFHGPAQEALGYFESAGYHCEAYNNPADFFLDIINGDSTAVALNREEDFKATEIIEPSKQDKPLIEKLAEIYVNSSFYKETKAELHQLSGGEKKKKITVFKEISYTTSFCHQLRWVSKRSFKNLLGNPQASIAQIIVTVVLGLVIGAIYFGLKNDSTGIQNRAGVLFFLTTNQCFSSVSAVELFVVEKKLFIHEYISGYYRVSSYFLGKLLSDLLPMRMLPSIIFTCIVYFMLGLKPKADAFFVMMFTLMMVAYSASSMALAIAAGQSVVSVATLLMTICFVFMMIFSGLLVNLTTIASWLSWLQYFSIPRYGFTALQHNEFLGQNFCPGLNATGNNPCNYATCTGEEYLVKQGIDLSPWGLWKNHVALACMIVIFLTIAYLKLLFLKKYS", "experiment": "Hoechst 33342 dye extrusion in HeLa cells expressing wild-type ABCG2", "assay_type": "cell-based", "details": "wild-type ABCG2, 0.2 µM Hoechst 33342, full inhibition by 1 µM Ko143"}, "Q141K-ABCG2 variant": {"target": "T3, Q141K-ABCG2 variant (Homo sapiens, UniProt Q9UNQ0, Q141K)", "T3 construct": "expressed in transfected cells; host or cells: HeLa (Sleeping Beauty transposon system)", "T3 sequence (Q9UNQ0 1-655 Q141K)": "T2 sequence (Q9UNQ0 1-655) with Q141K", "experiment": "Hoechst 33342 dye extrusion in HeLa cells expressing Q141K-ABCG2", "assay_type": "cell-based", "details": "Q141K-ABCG2 variant vs WT"}, "ABCC1/MRP1": {"target": "ABCC1/MRP1 (Homo sapiens, UniProt P33527)", "sequence (P33527 whole entry)": "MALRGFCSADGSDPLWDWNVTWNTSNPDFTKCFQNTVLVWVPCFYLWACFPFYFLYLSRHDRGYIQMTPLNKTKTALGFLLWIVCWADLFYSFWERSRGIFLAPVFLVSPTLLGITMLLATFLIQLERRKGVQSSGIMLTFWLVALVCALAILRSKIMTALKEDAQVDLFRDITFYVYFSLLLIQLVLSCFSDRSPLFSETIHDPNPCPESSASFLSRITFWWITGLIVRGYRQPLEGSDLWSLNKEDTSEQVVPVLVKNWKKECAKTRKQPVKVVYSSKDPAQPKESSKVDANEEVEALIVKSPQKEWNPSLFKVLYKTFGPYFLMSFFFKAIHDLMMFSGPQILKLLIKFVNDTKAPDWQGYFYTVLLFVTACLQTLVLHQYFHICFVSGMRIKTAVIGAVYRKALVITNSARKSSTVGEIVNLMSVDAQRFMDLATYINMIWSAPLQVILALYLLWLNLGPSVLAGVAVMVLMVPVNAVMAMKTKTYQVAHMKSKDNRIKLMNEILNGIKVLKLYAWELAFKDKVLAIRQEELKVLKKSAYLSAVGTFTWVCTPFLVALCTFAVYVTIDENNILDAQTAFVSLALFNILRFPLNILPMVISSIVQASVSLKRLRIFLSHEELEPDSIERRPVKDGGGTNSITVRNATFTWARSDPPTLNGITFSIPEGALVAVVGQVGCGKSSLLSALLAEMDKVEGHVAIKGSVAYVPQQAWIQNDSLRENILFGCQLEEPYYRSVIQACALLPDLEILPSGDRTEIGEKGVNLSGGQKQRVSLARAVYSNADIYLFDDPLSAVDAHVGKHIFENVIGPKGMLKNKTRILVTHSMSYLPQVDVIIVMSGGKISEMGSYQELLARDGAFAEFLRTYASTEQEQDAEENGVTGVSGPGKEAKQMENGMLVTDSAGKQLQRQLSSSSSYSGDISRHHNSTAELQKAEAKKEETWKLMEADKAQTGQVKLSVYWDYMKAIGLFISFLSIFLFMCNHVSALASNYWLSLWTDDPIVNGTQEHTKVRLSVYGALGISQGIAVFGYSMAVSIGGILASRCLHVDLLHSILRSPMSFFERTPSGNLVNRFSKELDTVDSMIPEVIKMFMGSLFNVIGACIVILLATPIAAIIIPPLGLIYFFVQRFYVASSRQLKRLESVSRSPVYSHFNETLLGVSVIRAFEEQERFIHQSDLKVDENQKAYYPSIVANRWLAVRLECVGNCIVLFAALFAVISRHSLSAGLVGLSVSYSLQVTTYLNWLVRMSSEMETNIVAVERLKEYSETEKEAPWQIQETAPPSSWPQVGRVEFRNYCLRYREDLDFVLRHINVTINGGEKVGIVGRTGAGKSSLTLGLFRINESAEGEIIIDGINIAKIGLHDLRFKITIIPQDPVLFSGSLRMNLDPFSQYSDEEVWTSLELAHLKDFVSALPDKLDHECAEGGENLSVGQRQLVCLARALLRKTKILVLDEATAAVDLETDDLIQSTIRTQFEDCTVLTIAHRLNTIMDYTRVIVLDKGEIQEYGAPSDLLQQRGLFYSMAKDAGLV", "experiment": "in vitro"}, "OATP1A2": {"target": "T4, OATP1A2 (Homo sapiens, UniProt P46721)", "T4 sequence (P46721 1-670)": "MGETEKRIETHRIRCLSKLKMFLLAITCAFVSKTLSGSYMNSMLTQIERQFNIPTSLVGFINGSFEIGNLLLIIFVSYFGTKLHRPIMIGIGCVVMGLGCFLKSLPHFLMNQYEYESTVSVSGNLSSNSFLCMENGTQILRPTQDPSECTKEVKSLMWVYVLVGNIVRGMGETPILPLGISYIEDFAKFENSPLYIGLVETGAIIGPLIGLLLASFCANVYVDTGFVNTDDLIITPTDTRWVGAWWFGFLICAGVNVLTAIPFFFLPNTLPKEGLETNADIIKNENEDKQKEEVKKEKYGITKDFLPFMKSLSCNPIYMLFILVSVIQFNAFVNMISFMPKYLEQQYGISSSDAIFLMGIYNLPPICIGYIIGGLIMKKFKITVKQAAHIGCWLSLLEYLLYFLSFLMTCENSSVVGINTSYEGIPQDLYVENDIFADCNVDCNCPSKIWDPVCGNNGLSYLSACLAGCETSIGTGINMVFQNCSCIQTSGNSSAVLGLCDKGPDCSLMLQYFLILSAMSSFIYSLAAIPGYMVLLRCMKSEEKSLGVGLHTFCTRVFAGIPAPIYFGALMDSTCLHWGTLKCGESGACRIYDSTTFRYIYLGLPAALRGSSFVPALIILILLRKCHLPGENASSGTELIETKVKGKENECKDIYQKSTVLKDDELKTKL", "experiment": "cell-based"}, "OATP2B1": {"target": "T5, OATP2B1 (Homo sapiens, UniProt O94956)", "T5 sequence (O94956 1-709)": "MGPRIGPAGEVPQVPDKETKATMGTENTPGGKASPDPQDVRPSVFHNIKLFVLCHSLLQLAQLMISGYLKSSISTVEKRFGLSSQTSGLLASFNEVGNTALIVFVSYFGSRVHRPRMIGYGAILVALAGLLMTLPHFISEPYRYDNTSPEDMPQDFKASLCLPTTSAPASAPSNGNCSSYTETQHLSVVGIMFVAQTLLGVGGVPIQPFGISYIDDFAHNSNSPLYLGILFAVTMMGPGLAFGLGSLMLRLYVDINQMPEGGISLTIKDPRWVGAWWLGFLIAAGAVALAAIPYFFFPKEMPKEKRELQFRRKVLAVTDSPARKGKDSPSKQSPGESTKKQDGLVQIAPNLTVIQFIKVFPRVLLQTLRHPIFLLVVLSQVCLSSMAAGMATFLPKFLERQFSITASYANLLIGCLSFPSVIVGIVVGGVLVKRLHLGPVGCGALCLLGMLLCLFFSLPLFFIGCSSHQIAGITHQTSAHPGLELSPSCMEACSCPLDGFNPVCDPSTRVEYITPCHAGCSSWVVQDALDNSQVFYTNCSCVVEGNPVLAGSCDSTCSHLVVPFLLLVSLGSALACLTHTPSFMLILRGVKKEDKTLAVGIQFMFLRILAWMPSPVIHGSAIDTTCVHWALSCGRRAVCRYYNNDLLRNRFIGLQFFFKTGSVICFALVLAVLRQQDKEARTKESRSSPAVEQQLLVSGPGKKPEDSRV", "experiment": "cell-based"}, "ABCG2/BCRP": {"target": "T6, ABCG2/BCRP (Homo sapiens, UniProt Q9UNQ0)", "T6 sequence (Q9UNQ0 1-655)": "T2 sequence (Q9UNQ0 1-655)", "experiment": "ABCG2-ATPase activity in Sf9 membrane vesicles", "assay_type": "biochemical", "set-up": "expressed in transfected cells; host or cells: PLB-985", "details": "Sf9/ABCG2 membranes; ivermectin, ritonavir, lopinavir at low micromolar, remdesivir at higher concentrations", "protocol": "ABC transporter ATPase activity was measured in Sf9 membrane vesicles containing the respective human ABC transporters [46, 47, 48, 49, 50]. For ABCG2/BCRP, the cholesterol level in the vesicles was increased to the level of mammalian cell membranes for full activity [49]. For ABCB1/Pgp 20 μg/150 μL and for ABCG2/BCRP 10 μg/150 μL, vesicles were incubated with 3 mM Mg-ATP for 25 min at 37 °C. The test drugs were dissolved in DMSO and 1 µL was added to the samples. The ABC transporter-related ATPase activity was determined and reference activators (50 µM verapamil for ABCB1 and 5 µM quercetin for ABCG2) served as controls.\nDrug-stimulated ATPase activity of the ABCG2 transporter was also measured in the present study."}}, "note": "Numbering of substitutions follows the chain as printed.", "data": [{"smiles": "Cc1cccc(C)c1OCC(=O)N[C@@H](Cc1ccccc1)[C@@H](O)C[C@H](Cc1ccccc1)NC(=O)[C@H](C(C)C)N1CCCNC1=O", "note": "[lopinavir]", "values": [{"measurement": "Concentration of maximal ABCB1-ATPase stimulation", "setting": "ABCB1/Pgp; Sf9/ABCB1 membranes", "result": "around 0.5 µM"}, {"measurement": "Effect on ABCB1-ATPase activity (in words)", "setting": "ABCB1/Pgp; Sf9/ABCB1 membranes, 50 µM verapamil as reference activator", "result": "significant ABCB1-ATPase stimulation"}, {"measurement": "Effect on ABCB1-ATPase activity at higher concentrations (in words)", "setting": "ABCB1/Pgp; at higher concentrations", "result": "inhibitory effects"}, {"measurement": "Effect on Hst dye extrusion by ABCG2 in HeLa cells (in words)", "setting": "wild-type ABCG2", "result": "inhibited"}, {"measurement": "Inhibition of Hst dye extrusion in Q141K-ABCG2 HeLa cells compared with wild type (in words)", "setting": "Q141K-ABCG2 variant", "result": "significantly stronger inhibition"}, {"measurement": "inhibition at 3 min", "setting": "ABCC1/MRP1", "result": 60, "unit": "%"}, {"measurement": "IC50", "setting": "OATP1A2", "result": 1.5, "unit": "µM"}, {"measurement": "IC50", "setting": "OATP2B1", "result": 1, "unit": "µM"}, {"measurement": "Effect on baseline ABCG2-ATPase activity (in words)", "setting": "ABCG2/BCRP", "result": "significantly inhibited"}]}]}
